Assay results from the NIST ThermoML archive (doi:10.1016/j.jct.2006.09.008).

Assay: molar heat capacity at constant pressure; mn = molality of the nth substance listed, in mol/kg
Settings: 350 kPa, Liquid

O=[N+]([O-])[O-].O=[N+]([O-])[O-].[Mn+2] [manganese nitrate] + O
molar heat capacity at constant pressure [J/K/mol]
Settings | m1 = 0.0132 | m1 = 0.0248 | m1 = 0.0503 | m1 = 0.0825 | m1 = 0.0836 | m1 = 0.1542 | m1 = 0.3085 | m1 = 0.5132
278.15 K | 75.63 | 75.56 | 75.42 | 75.25 | 75.25 | 74.9 | 74.27 | 73.62
283.15 K | 75.47 | 75.41 | 75.28 | 75.14 | 75.13 | 74.83 | 74.27 | 73.71
288.15 K | 75.36 | 75.31 | 75.19 | 75.07 | 75.06 | 74.79 | 74.3 | 73.8
293.15 K | 75.29 | 75.24 | 75.14 | 75.02 | 75.02 | 74.78 | 74.34 | 73.88
298.15 K | 75.24 | 75.2 | 75.1 | 75 | 75 | 74.78 | 74.38 | 73.96
303.15 K | 75.21 | 75.17 | 75.08 | 74.99 | 74.99 | 74.78 | 74.42 | 74.04
308.15 K | 75.2 | 75.16 | 75.08 | 74.99 | 74.99 | 74.8 | 74.46 | 74.11
313.15 K | 75.2 | 75.16 | 75.09 | 75.01 | 75 | 74.83 | 74.51 | 74.18
318.15 K | 75.21 | 75.18 | 75.11 | 75.03 | 75.03 | 74.86 | 74.56 | 74.25
323.15 K | 75.24 | 75.2 | 75.14 | 75.06 | 75.06 | 74.89 | 74.61 | 74.32
328.15 K | 75.27 | 75.24 | 75.17 | 75.1 | 75.09 | 74.94 | 74.66 | 74.39
333.15 K | 75.31 | 75.28 | 75.21 | 75.14 | 75.14 | 74.99 | 74.72 | 74.45
338.15 K | 75.36 | 75.33 | 75.26 | 75.19 | 75.19 | 75.04 | 74.78 | 74.52
343.15 K | 75.42 | 75.39 | 75.32 | 75.25 | 75.25 | 75.1 | 74.84 | 74.59
348.15 K | 75.48 | 75.45 | 75.38 | 75.31 | 75.31 | 75.16 | 74.91 | 74.66
353.15 K | 75.55 | 75.52 | 75.46 | 75.38 | 75.38 | 75.23 | 74.98 | 74.73
358.15 K | 75.63 | 75.6 | 75.53 | 75.46 | 75.46 | 75.31 | 75.06 | 74.81
363.15 K | 75.72 | 75.68 | 75.62 | 75.54 | 75.54 | 75.39 | 75.14 | 74.89
368.15 K | 75.81 | 75.78 | 75.71 | 75.63 | 75.63 | 75.48 | 75.22 | 74.97
373.15 K | 75.91 | 75.88 | 75.81 | 75.73 | 75.73 | 75.57 | 75.31 | 75.06
378.15 K | 76.02 | 75.99 | 75.91 | 75.83 | 75.83 | 75.67 | 75.41 | 75.15
383.15 K | 76.14 | 76.1 | 76.03 | 75.94 | 75.94 | 75.78 | 75.51 | 75.25
388.15 K | 76.27 | 76.23 | 76.15 | 76.07 | 76.07 | 75.89 | 75.62 | 75.36
393.15 K | 76.41 | 76.37 | 76.29 | 76.2 | 76.2 | 76.02 | 75.74 | 75.47
